For test [1], the system named is HBEC30KT cells. The experiment in a line: MTS cell viability assay. The test is classed as cell-based, human. Here is the method: After confirming the binding and specificity of the PPS1 on HCC4017 lung cancer cells, whether this compound has any biological effects on HCC4017 lung cancer cells was assayed. The gold standard cell viability (MTS) assay was used. HCC4017 cells and HBEC30kt and HBEC3kt cells were grown in 96 well plates on day 1, then treated by serial dilution of PPS1 and control compound C462 on day 2, and the viable cell count was measured using MTS reagent on day 3. […] On one of the repetitive experiments of this assay, Cystinylated-PPS1 compound was included (FIG. 6A). This was the intermediate compound used to attach the FITC-malemide for binding assays described previously. […] The only difference between this Cystinylated-PPS1 and the original PPS1 compound was just a single cysteine amino acid at the C-terminal. […]
(§1) A homo-dimeric version of PPS1 was synthesized. […] The resulting dimeric version of the PPS1 compound, PPS1D1 (FIG. 6C), and the analogous dimeric versions of scrambled PC2, PC2D1 (FIG. 6E), and control compound C462, PC462D1 (FIG. 82), were then evaluated for activity. […] As described above, HCC4017 cells and HBEC30kt and HBEC3kt cells were grown in 96 well plates on day 1, treated serial dilutions of PPS1, PPS1D1, C462 and C462D1 on day 2, and viable cell count was measured using MTS reagent on day 3. […]

In test [2] the test system is HCC4017 cells. Description: MTS cell viability assay. The test is classed as cell-based, human. Here is the method:
After confirming the binding and specificity of the PPS1 on HCC4017 lung cancer cells, whether this compound has any biological effects on HCC4017 lung cancer cells was assayed. The gold standard cell viability (MTS) assay was used. […] On one of the repetitive experiments of this assay, Cystinylated-PPS1 compound was included (FIG. 6A). This was the intermediate compound used to attach the FITC-malemide for binding assays described previously. […] The only difference between this Cystinylated-PPS1 and the original PPS1 compound was just a single cysteine amino acid at the C-terminal. It was difficult to rationalize having a single amino acid residue at the terminus of the sequence causing a large difference of activity, other possibilities were considered. Cysteine has sulfur (—SH) group on the side chain and two of these can easily form disulfide bonds. […]
as §1
A general note: Formazan colour is commonly taken as a measure of viable cells.

Test [3] can be described thus: In vitro cellular activity of PS targeted peptoid derivatives. The test is classed as cell-based. The text has this: Peptoid compounds include but are not limited to PPS1D1 (FIG. 15), PPS1-DE2 (FIG. 16), PPS1-RD1 (FIG. 17), PPS1-2P3H (FIG. 18), PPS1-4P3H (FIG. 19), PPS1-Tri-1 (FIG. 20), PPS1-Tet-1 (FIG. 21), and PPS2D1 (FIG. 22). […] PPS1D1 has a validated in vivo animal tumor burden activity.

pIC50: −log10 of the molar value. “Also recorded” adds a separate entry of the source. Positions of bridges follow the written chain, without caps; N, C: chain ends. Non-standard residues stand in square brackets, D forms with d. Residues, ends and D or L forms follow the SMILES beside them. Chains are numbered I, II in the order given. Gly(N-piperonyl) = O=C(O)CNCc1ccc2c(c1)OCO2; N(4-MeOBn)Gly = COc1ccc(CNCC(=O)O)cc1; Nrpe = C[C@@H](NCC(=O)O)c1ccccc1; Nlys = NCCCCNCC(=O)O

Results on one compound are retold here after US10849875B2, “Cancer specific lipid targeted peptidomimetics” (University of Houston System, priority 2015, dated 2020).

Take `COc1ccc(CN(CC(=O)N(CCCCN)CC(=O)N[C@@H](CCCCN)C(=O)N[C@H](CCCCN)C(=O)N[C@@H](CCSC)C(=O)NCCCC[C@H](NC(=O)[C@H](CCSC)NC(=O)[C@@H](CCCCN)NC(=O)[C@H](CCCCN)NC(=O)CN(CCCCN)C(=O)CN(Cc2ccc(OC)cc2)C(=O)CN(C(=O)CN(Cc2ccc3c(c2)OCO3)C(=O)CN[C@H](C)c2ccccc2)[C@H](C)c2ccccc2)C(N)=O)C(=O)CN(C(=O)CN(Cc2ccc3c(c2)OCO3)C(=O)CN[C@H](C)c2ccccc2)[C@H](C)c2ccccc2)cc1` [PPS1D1] (I: H-[Nrpe][Gly(N-piperonyl)][Nrpe][N(4-MeOBn)Gly][Nlys]K[dK]MK-NH2 / II: H-[Nrpe][Gly(N-piperonyl)][Nrpe][N(4-MeOBn)Gly][Nlys]K[dK]M; amide I:9-II:C; N-terminus assumed): the “effect on normal HBEC30KT cells” value in test [1] (1 and 20 μM) was “no effect”. Moreover, the “activity on normal HBEC30KT cells” value in test [1] (serial dilutions) was “did not have any activity; also recorded: no cytotoxicity”. For the same compound, in test [2] (HCC4017, tested at 6, 12 and 24 hours post treatment), the “activity at different times post treatment” value was “somewhat similar”. In addition, in test [2] (MTS, HCC4017), the pIC50 (usually −log10 of the IC50, conventionally taken in molar units) is approximately 5.00. The “in vitro cellular activity” value in test [3] is listed as “validated in vitro cellular activity”.
